Measurements: patent US20250163365A1, “LACTOBACILLUS REUTERI JH53 STRAIN HAVING EXCELLENT ORGANIC ACID RESISTANCE AND CONVERSION OF 1,3-PROPANDIOL FROM GLYCEROL, AND USE THEREOF” (ACTIVON CO., LTD., priority 2021, published 2025)
≈ marks a conversion by molar mass, not a printed value. Read-outs that look alike come from different tables or passages of the source.

Tests used:
[1] = tested on: Lactobacillus reuteri CH53 strain; experiment: IC50 of Lactobacillus reuteri CH53 strain for metabolites (Example 1); assay type: cell-based
Experimental: The half-maximal inhibitory concentrations (IC50) of the Lactobacillus reuteri CH53 strain (KCTC13149BP) for major metabolites were measured. […] Thereafter, 1% (v/v) of the strain culture with OD600 nm=8.0 was inoculated into each broth and statically cultured at 37° C. for 24 hours, and the concentration at which the absorbance (OD600 nm) was half of the control was measured.

L. reuteri JH53 = experiment: IC50 for organic acids, mutant strain (Example 3); assay type: cell-based, Lactobacillus reuteri; settings: Limosilactobacillus reuteri, JH53, 24 h, pH 5.5, read-out: IC50 (g/L) L. reuteri JH53
Experimental: (§1) In order to confirm that the Lactobacillus reuteri JH53 strain of the present invention has enhanced organic acid resistance, the half-maximal inhibitory concentrations (IC50) for organic acids were measured. […] Thereafter, 1% (v/v) of each strain culture with OD600 nm=8.0 was inoculated into each broth and statically cultured at 37° C. for 24 hours, and the concentration at which the absorbance (OD600 nm) was half of the control was measured.

[2] = tested on: Lactobacillus reuteri CH53 strain; settings: lactic acid and acetic acid mixed in MRS plate medium, anaerobic, 37° C., 24 hours
L. reuteri CH53 = experiment: IC50 for organic acids, parent strain (Example 3); assay type: cell-based, Lactobacillus reuteri; settings: Limosilactobacillus reuteri
Experimental: as §1

[3] = tested on: Lactobacillus reuteri CH53 strain; experiment: Fed-batch culture of CH53 in medium supplemented with organic acid; assay type: cell-based; settings: 10 g/L organic acid added, pH 5.5, fed-batch, 37° C., 100 rpm
Experimental: Cell growth and 1,3-propanediol production were measured while the Lactobacillus reuteri CH53 strain was fed-batch cultured in a medium supplemented with an organic acid. 3 L of MRS broth containing 20 g/L of glycerol, 10 g/L of proteose peptone NO. […] During culture, glucose and glycerol were continuously fed so that they could be maintained at residual concentrations of 5 to 10 g/L. Thereafter, 1% (v/v) of the strain culture with OD600 nm=8.0 was inoculated into each broth, and the absorbance (OD600 nm) was measured while fed-batch culture was carried out under conditions of 37° C. and 100 rpm. 1 mL of each culture was centrifuged at 13,000 rpm for 5 minutes, and then the supernatant was filtered through a 0.22-μm filter and the concentration of 1,3-propanediol was measured using high-performance liquid chromatography. 1,3-Propanediol production was analyzed by high-performance liquid chromatography equipped with an ion exchange column ([…], Aminex HPX-87H, Bio-Rad) and a differential refraction detector (RID) using 0.25 mM H2SO4 as a mobile phase at a flow rate of 0.6 ml/min.

[4] = Limosilactobacillus reuteri, CH53STRAIN, CH53 strain, MRS broth pH 5.5, static culture 37° C. 24 hours, concentration at which OD600 nm was half of control, read-out: IC50

SMILES	IC50 ([1]; CH53 strain, MRS broth pH 5.5, static culture 37° C. 24 hours, concentration at which OD600 nm was half of control)	IC50 (L. reuteri JH53)	Concentration at which CH53 strain could not grow [2]	IC50 (L. reuteri CH53; CH53, 24 h, pH 5.5, read-out: IC50 (g/L) L. reuteri CH53)	Effect on 1,3-propanediol production of CH53 strain [3]	Effect on cell growth of CH53 strain [3]	IC50 ([1]; Limosilactobacillus reuteri, CH53STRAIN, 24 h, pH 5.5)	IC50 [1, 4]	IC50 (L. reuteri CH53; CH53, MRS broth pH 5.5, static culture 37° C. 24 hours, OD600 nm half of control, read-out: IC50 (g/L) L. reuteri CH53)
OCCCO [1,3-propanediol]	79.8 mg/mL	–	–	–	–	–	–	–	–
CC(=O)O [Acetic acid]	–	25.6 g/L (≈ 426 mM)	≥ 17.5 g/L	20.6 g/L (≈ 343 mM)	reduced 1,3-propanediol production	did not affect cell growth	17.4 mg/mL	–	–
CCO [Ethanol]	–	–	–	–	–	–	–	29.5 mg/mL	–
CC(O)C(=O)O (centres unmarked) [Lactic acid]	–	36.7 g/L (≈ 407 mM)	≥ 35.0 g/L	–	reduced 1,3-propanediol production	did not affect cell growth	–	27.9 mg/mL	31.9 g/L (≈ 354 mM)
